Reference: paper PMC5958064, “Single cell analysis of kynurenine and System L amino acid transport in T cells” (Nature Communications, 2018)

How the values were obtained:
AHR [1] = test: Cyp1a1 mRNA induction in TH17cond CD4+ T cells (qPCR); format: cell-based, mouse
Procedure: To activate primary T cells, spleens and/or lymph nodes (LN) were removed, disaggregated and red blood cells lysed. Cells were stimulated with 1 μg/ml of the CD3 monoclonal antibody (2C11) and 2 μg/ml anti-CD28 (37.51; ebiosciences) to trigger the TCR. Naive CD4^+ T cells and 24 h TCR-activated CD4^+ T cells were purified using CD4 isolation kit (EasySep, STEMCELL Technologies). […] Proleukin, Novartis) for a further 3–5 days. To generate TH1s and TH17s, murine CD8^+ T cells were depleted from lymph node preparations using CD8 depletion kit (EasySep, STEMCELL Technologies). […] RnD Systems) and IL-2 (20 ng/ml) and for TH17s; cytokines IL-6 (50 ng/ml, Peprotech), IL-1β (10 ng/ml, Peprotech) and TGFβ (2 ng/ml, Peprotech). TH17s were cultured in IMDM (Gibco). All other cells were cultured in RPMI 1640 containing L-glutamine (Gibco). Culture media was supplemented with 10% FBS (Gibco), 50 μM β-mercaptoethanol (β-ME, Sigma) and penicillin/streptomycin (Gibco). Cells were incubated at 37 °C with 5% CO2 throughout. […] RNA was purified using the RNeasy RNA purification Mini Kit (Qiagen) (Genomic DNA was digested with RNase-free DNase (Qiagen) following manufacturer instructions) and reverse-transcribed using the iScript cDNA synthesis kit (BioRad). Quantitative PCR was performed in 96-well plate format using iQ SYBR Green-based detection (BioRad) on a BioRad iCycler.

AHR [2] = tested on: AHR; design: method as in PMID 25657351, PMID 29279331; details: cited from earlier work
[3] = biological target: T1, System L transporter SLC7A5 (Mus musculus, UniProt Q9Z127); test: Radiolabelled 3H-kynurenine uptake in T cells; format: cell-based; details: compared with kynurenine Km ~200 μM
T1 construct: endogenous in cells
T1 sequence (Q9Z127 whole entry): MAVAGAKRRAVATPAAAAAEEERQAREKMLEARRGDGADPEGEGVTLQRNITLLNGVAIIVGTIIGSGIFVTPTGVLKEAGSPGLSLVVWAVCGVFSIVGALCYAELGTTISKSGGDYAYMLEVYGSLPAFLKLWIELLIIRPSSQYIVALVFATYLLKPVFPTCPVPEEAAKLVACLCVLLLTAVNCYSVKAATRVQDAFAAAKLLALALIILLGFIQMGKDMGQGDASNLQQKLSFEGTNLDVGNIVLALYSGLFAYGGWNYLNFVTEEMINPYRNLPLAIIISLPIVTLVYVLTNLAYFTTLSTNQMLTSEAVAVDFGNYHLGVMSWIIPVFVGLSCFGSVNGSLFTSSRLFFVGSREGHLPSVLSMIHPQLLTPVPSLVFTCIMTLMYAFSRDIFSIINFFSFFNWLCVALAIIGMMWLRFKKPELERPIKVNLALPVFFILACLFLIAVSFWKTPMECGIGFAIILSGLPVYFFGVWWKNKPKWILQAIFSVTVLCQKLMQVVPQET
T1 sequence (P10852 whole entry partner): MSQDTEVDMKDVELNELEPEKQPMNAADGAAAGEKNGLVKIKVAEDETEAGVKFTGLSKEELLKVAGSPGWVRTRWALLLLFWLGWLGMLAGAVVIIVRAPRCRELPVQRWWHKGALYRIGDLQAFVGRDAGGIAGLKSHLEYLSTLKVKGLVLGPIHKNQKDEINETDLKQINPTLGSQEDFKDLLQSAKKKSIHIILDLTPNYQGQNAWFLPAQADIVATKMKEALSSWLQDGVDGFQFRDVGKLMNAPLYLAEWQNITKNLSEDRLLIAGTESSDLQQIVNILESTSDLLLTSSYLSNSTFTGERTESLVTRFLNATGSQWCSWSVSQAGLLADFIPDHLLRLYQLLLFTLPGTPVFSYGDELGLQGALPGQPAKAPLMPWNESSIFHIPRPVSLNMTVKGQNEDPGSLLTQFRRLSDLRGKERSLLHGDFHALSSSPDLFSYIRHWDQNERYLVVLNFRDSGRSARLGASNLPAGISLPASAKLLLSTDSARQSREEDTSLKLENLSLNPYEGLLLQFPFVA
Procedure: To activate primary T cells, spleens and/or lymph nodes (LN) were removed, disaggregated and red blood cells lysed. Cells were stimulated with 1 μg/ml of the CD3 monoclonal antibody (2C11) and 2 μg/ml anti-CD28 (37.51; ebiosciences) to trigger the TCR. Naive CD4^+ T cells and 24 h TCR-activated CD4^+ T cells were purified using CD4 isolation kit (EasySep, STEMCELL Technologies). […] Proleukin, Novartis) for a further 3-5 days. To generate TH1s and TH17s, murine CD8^+ T cells were depleted from lymph node preparations using CD8 depletion kit (EasySep, STEMCELL Technologies). […] RnD Systems) and IL-2 (20 ng/ml) and for TH17s; cytokines IL-6 (50 ng/ml, Peprotech), IL-1β (10 ng/ml, Peprotech) and TGFβ (2 ng/ml, Peprotech). TH17s were cultured in IMDM (Gibco). All other cells were cultured in RPMI 1640 containing L-glutamine (Gibco). Culture media was supplemented with 10% FBS (Gibco), 50 μM β-mercaptoethanol (β-ME, Sigma) and penicillin/streptomycin (Gibco). Cells were incubated at 37 °C with 5% CO2 throughout. […] Cells were pelleted below the oil, the aqueous supernatant solution, followed by the silicon oil/dibutyl phthalate mixture was aspirated, and the cell pellet underneath resuspended in 200 μl NaOH (0.5 M) and β-radioactivity measured by liquid scintillation counting in a Beckman LS 6500 Multi-Purpose Scintillation Counter (Beckman Coulter). […] Where indicated, the sodium free buffer was prepared using TMACl as described in Baird et al.[35] Data are expressed as molecules radiotracer per cell per minute. […] All other chemicals were obtained from Sigma.

[4] = biological target: T1, System L transporter SLC7A5; test: Flow cytometry kynurenine uptake assay (450 nm fluorescence) in T cells; format: cell-based; details: for IC50: 37 °C; for IC50 / effect on kynurenine transport (450 nm fluorescence): 4 min; for effect on kynurenine transport ex vivo: D7 rLM-infected CD8+ T cells; for effect on kynurenine transport ex vivo / effect on kynurenine transport (450 nm fluorescence): BCH 10 mM, Leu 5 mM, Lys 5 mM; for effect on kynurenine transport (450 nm fluorescence): TCR-stimulated CD8+ T cells or CTLs
Excerpt: For cell surface staining, antibodies conjugated to FITC, PE, APC, Alexafluor 647 (A647), APC-efluor780 (APCe780), and PerCPCy5.5 were obtained from either BD Pharmingen, eBioscience or Biolegend. Fc receptors were blocked using Fc Block (BD Pharmingen). Antibody clones used were: CD4 (RM4-5), CD8a (53-6.7), TCRβ (H57-597), CD44 (IM7), CD45.1 (A20), CD45.2 (104) and CD98 (RC388). Cells were fixed using 1% paraformaldehyde. Standard intracellular cytokine staining protocols were followed for IFNγ (clone XMG1.2; Biolegend) staining. Data were acquired on a LSR Fortessa II with DIVA software or a FACSVerse flow cytometer with FACSuite software (BD Biosciences) and analysed using FlowJo software version 9.9.5 (TreeStar).
Start with at least 1 × 10^6 cells per condition, to obtain at least 200,000 events analysed by flow cytometry at the end of the protocol. […] If required, surface cell antibody staining should be performed prior to uptake assay protocol. This may be performed at room temperature or 4 °C, however test samples must be warmed to 37 °C, e.g. in water bath, prior to kynurenine uptake. (As with all multi-parameter flow cytometry, appropriate antibody staining controls must also be performed.) Samples can be fixed immediately after uptake assay by addition of 4% (vol/vol) paraformaldehyde (PFA; to a final concentration of 1%) for 30 min at room temperature.
For kynurenine uptake assay; pre-warm kynurenine (800 μM, in HBSS), BCH (40 mM, in HBSS) and lysine (20 mM, HBSS) and HBSS to 37 °C. After surface antibody staining of samples, resuspend cells in 200 μl warmed HBSS (1–5 × 10^6 cells in FACS tubes, or scale accordingly into plates). Keep cells in water bath at 37 °C. Add 100 μl of HBSS, or BCH or lysine to appropriate samples. Add 100 μl HBSS to no kynurenine controls (final volume 400 μl). Finally, add 100 μl kynurenine to appropriate samples. Stop uptake after 4 min by adding 125 μl 4% PFA for 30 min at room temperature, in the dark. The final concentrations for uptake assay are: 200 μM kynurenine; +/-10 mM BCH; +/-5 mM lysine. After fixation, wash cells twice in PBS/0.5% BSA and resuspend in PBS/0.5% BSA prior to acquisition on flow cytometer. The 405 nm laser and 450/50 BP filter are used for kynurenine fluorescence detection.
To monitor kynurenine uptake in live cells, acquire data on flow cytometer immediately following addition of kynurenine and plot fluorescence against time.

mTORC1 = mTORC1 activity in CTLs after leucine removal and refeeding; format: cell-based, mouse; details: CTLs removed from leucine, refed leucine 100uM ± Kyn 100uM
Excerpt: page 13: • We […] would not be able to measure the levels of in vivo ky nurenine uptake with this assay (for the reasons explained above). However, this is a pertinent question, and will relate to the total amount of available kynurenine compared to alternative System L substrates. The detailed micro-environmental metabolomics techniques required to perform this kind of analysis is beyond the scope of this paper, however we have tried to address this point in the discussion. Second, did CD4 T cells (Foxp3-) and Tregs (Foxp3+) from Lm-infected mice also i mport Ky n? […] This, also, is a very interesting aspect, however we feel that it is beyond the scope of this paper. Point 4: Data presented in Figures 4 & 5 show convincingly that SLC7A5 ablation in CD4 T cells abolishes Kyn uptake in CD4 T cells selectively and that imported Kyn triggers AhR signaling in CD4 T cells, respectively. However, no data is presented to address the biological significance of these findings, specifically regarding the reported ability of Kyn to suppress Th1 responses (e.g. IFNg production) or to reinforce Treg-mediated suppression of effector T cells via AhR signaling. […]

With `Cc1ccccc1N=Nc1ccc(NC(=O)c2ccnn2C)c(C)c1` [CH223191] the “effect on kynurenine-induced Cyp1A1 mRNA” value (AHR [1]; D3 TH17cond cells, kynurenine 10 μM 2 h, CH223191 30 μM) was “completely blocked”.

For `O=Cc1c2[nH]c3ccccc3c2cc2[nH]c3ccccc3c12` [FICZ, 6-formylindolo[3,2-b]carbazole], the “Cyp1a1 mRNA induction, D3 versus D5 post activation” value (AHR [1]; TH17cond CD4+ T cells, kynurenine 100 μM or FICZ 300 nM, 2 h) is given as “equivalent on D3 and D5” and the “concentrations needed to activate the AHR” value (AHR [2]) is given as “pM/nM range”.

For `CC(C)C[C@H](N)C(=O)O` [leucine], the “Km of other System L substrates relative to Km of kynurenine” value [3] was ~ 10 fold less, the IC50 ([4]; CTL) was 411 ± 30 µM and the IC50 ([4]; D7 rLM CD8+ effector T cells from spleen, ex vivo) was 168 ± 38 µM. For the same molecule, the “effect on kynurenine transport ex vivo” value [4] was “blocked”, the “effect on kynurenine transport (450 nm fluorescence)” value [4] was “blocks kynurenine transport to comparable levels as BCH” and the “effect on mTORC1 activity” value (mTORC1) was “establishes mTORC1 activity”.

In the case of `Clc1cc2c(cc1Cl)Oc1cc(Cl)c(Cl)cc1O2` [TCDD, 2,3,7,8-tetrachlorodibenzo-p-dioxin], the “concentrations needed to activate the AHR” value (AHR [2]) is listed as “pM/nM range”.

With `CSCC[C@H](N)C(=O)O` [methionine] the “Km of other System L substrates relative to Km of kynurenine” value [3] was ~ 10 fold less.

For `N[C@@H](Cc1c[nH]c2ccccc12)C(=O)O` [tryptophan], the “Km of other System L substrates relative to Km of kynurenine” value [3] was ~ 10 fold less.

For `NCCCC[C@H](N)C(=O)O` [lysine], the “effect on kynurenine uptake” value ([4]; CD3/CD28 activated wild-type T cells in co-culture, 5 mM lysine, BCH) was “did not inhibit kynurenine uptake”, the “effect on kynurenine transport ex vivo” value [4] was “not by lysine competition” and the “effect on kynurenine transport (450 nm fluorescence)” value [4] was “does not affect kynurenine transport”.
